Experiment: xn = mol fraction of the nth substance listed
Conditions: 81.5 kPa, Liquid; for mass density: Vibrating tube method; for speed of sound: Sing-around technique in a fixed-path interferometer

CCn1cc[n+](C)c1.F[B-](F)(F)F [1-ethyl-3-methylimidazolium tetrafluoroborate] + CC(=O)N(C)C
Conditions	mass density [kg/m3]	speed of sound [m/s]
318.15 K, x1 = 0.131	998.322	–
318.15 K, x1 = 0.198	1033.75	–
318.15 K, x1 = 0.2976	1078.11	–
318.15 K, x1 = 0.3868	1113.98	–
318.15 K, x1 = 0.4734	1144.47	–
318.15 K, x1 = 0.563	1171.44	–
318.15 K, x1 = 0.7089	1210.93	–
318.15 K, x1 = 0.7973	1225.46	–
318.15 K, x1 = 0.8821	1238.13	–
318.15 K, x1 = 1	1267.03	–
323.15 K, x1 = 0.131	994.081	1413.7
323.15 K, x1 = 0.198	1029.41	1443.1
323.15 K, x1 = 0.2976	1074.03	1471.6
323.15 K, x1 = 0.3868	1109.98	1491.9
323.15 K, x1 = 0.4734	1140.55	1509
323.15 K, x1 = 0.563	1167.54	1525.4
323.15 K, x1 = 0.7089	1207.14	1543.9
323.15 K, x1 = 0.7973	1221.69	1551.4
323.15 K, x1 = 0.8821	1234.36	1557
323.15 K, x1 = 1	1263.3	1570.6
328.15 K, x1 = 0.131	990.013	1396.4
328.15 K, x1 = 0.198	1025.2	1426.6
328.15 K, x1 = 0.2976	1069.95	1456.1
328.15 K, x1 = 0.3868	1105.98	1477.4
328.15 K, x1 = 0.4734	1136.62	1495.2
328.15 K, x1 = 0.563	1163.66	1512.2
328.15 K, x1 = 0.7089	1203.38	1531.6
328.15 K, x1 = 0.7973	1217.94	1539.4
328.15 K, x1 = 0.8821	1230.61	1545.3
328.15 K, x1 = 1	1259.58	1559.4
333.15 K, x1 = 0.131	986.018	1379
333.15 K, x1 = 0.198	1021.01	1410.2
333.15 K, x1 = 0.2976	1065.88	1440.9
333.15 K, x1 = 0.3868	1101.99	1462.9
333.15 K, x1 = 0.4734	1132.72	1481.5
333.15 K, x1 = 0.563	1159.8	1499.1
333.15 K, x1 = 0.7089	1199.69	1519.4
333.15 K, x1 = 0.7973	1214.19	1527.4
333.15 K, x1 = 0.8821	1226.87	1533.6
333.15 K, x1 = 1	1255.88	1548.2
338.15 K, x1 = 0.131	982.059	1361.9
338.15 K, x1 = 0.198	1016.81	1393.9
338.15 K, x1 = 0.2976	1061.83	1425.7
338.15 K, x1 = 0.3868	1098.01	1448.6
338.15 K, x1 = 0.4734	1128.83	1467.9
338.15 K, x1 = 0.563	1155.95	1486.1
338.15 K, x1 = 0.7089	1195.92	1507.3
338.15 K, x1 = 0.7973	1210.46	1515.6
338.15 K, x1 = 0.8821	1223.16	1528.1
338.15 K, x1 = 1	1252.2	1537.2
343.15 K, x1 = 0.131	978.076	1344.8
343.15 K, x1 = 0.198	1012.61	1377.7
343.15 K, x1 = 0.2976	1057.78	1410.6
343.15 K, x1 = 0.3868	1094.04	1434.4
343.15 K, x1 = 0.4734	1124.94	1454.4
343.15 K, x1 = 0.563	1152.06	1473
343.15 K, x1 = 0.7089	1192.22	1495.4
343.15 K, x1 = 0.7973	1206.75	1503.8
343.15 K, x1 = 0.8821	1219.46	1510.6
343.15 K, x1 = 1	1248.54	1526.2
